Experimental data: paper PMC10609148 (Molecules, 2023)
“Also recorded” adds a separate entry of the source.

Columns and labels:
[1] = target: Aβ(1–42)/calbindin-D28k complex (Homo sapiens, UniProt P05067); assay: Antagonism of Aβ(1–42) HiLyte-Fluor555/calbindin-D28k interaction (fluorescence); assay type: biochemical, human recombinant calbindin-D28k
Description: The purified protein were aliquoted and conserved in 30% glycerol at −80 °C until use.

[2] = target: T1, Aβ(1–42)/CaM complex (Homo sapiens, UniProt P05067); assay: Antagonism of Aβ(1–42) HiLyte-Fluor555/CaM interaction (fluorescence); assay type: biochemical, Bovine brain CaM
T1 construct: purchased Merck-Sigma-Aldrich (CaM); AnaSpec (labelled Aβ peptide); host or cells: bovine brain
T1 sequence (P05067 672-713 limits assumed, one chain of several): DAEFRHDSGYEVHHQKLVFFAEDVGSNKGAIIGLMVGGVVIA
Description: Human Aβ(1–42)-HiLyte^TM-Fluor555 was purchased from AnaSpec (Freemont, CA, USA). […] His6 was purchased from Quimigen (Madrid, Spain). Bovine brain CaM and Thrombin Clean Cleavage^TM kit were purchased from Merck-Sigma-Aldrich (Madrid, Spain).
Fluorescence measurements were performed using a Fluoromax+ fluorescence Spectrophotometer (Horiba Jobin Yvon IBH Ltd., Glasgow, UK) in quartz cuvettes of 1cm light pathlength with a total volume of 2.5 mL at room temperature (24–25 °C), with excitation and emission slits of 5 nm.
The measurements of the kinetics of fluorescence have been performed in buffer 50 mM N-[2-hydroxyethyl] piperazine-N′-[2-ethanesulfonic acid], 100 mM KCl and 50 µM CaCl2 (pH 7.05).
CaM and calbindin-D28k were added from concentrated stock solutions freshly prepared in the assay buffer used in the fluorescence measurements, such that the total added volume was always lower than 10 μL.

[3] = tested on: human recombinant Cb5R with a His6-tag; assay: Inhibition of NADH-dependent Cb5 reductase activity of His6-tagged Cb5R; assay type: biochemical; settings: pH 7, 5 μM Cb5, 0.25 mM NADH
Description: The reaction was started by the addition of 0.25 mM NADH after 10 min preincubation of the Cb5R in the assay medium, and initial rates were measured during periods of time ranging between 5 and 10 min, with a less than 10% drop in the Cb5 concentration in the assay cuvette. The Cb5 reductase activity was calculated from the change of absorbance at 550 nm using a differential extinction coefficient between reduced and oxidized Cb5 of 16.5 mM^−1·cm^−1, as in previous works [67, 69].

[4] = tested on: human recombinant Cb5R with a His6-tag; assay: Titration of FAD fluorescence of His6-tagged Cb5R; assay type: binding
Description: (§1) The assay buffer was 20 mM phosphate/0.1 mM diethylenetriaminepentaacetic acid (pH 7).

[5] = 177 μM in phosphate-buffered saline; Tricine-SDS-PAGE; cited from earlier work
[6] = cited from earlier work
Text: Aβ peptides bind to ganglioside-clustered raft-like membrane microdomains, which foster the formation of Aβ oligomers and fibrils in a cholesterol-dependent manner. […] Moreover, plasma membrane lipid rafts play an active role in extracellular Aβ uptake and internalization in neurons. After the uptake of extracellular Aβ(1–42) into neurons, the intracellular ...

[7] = tested on: human recombinant Cb5R with a His6-tag; assay: FRET between FAD of His6-tagged Cb5R and Aβ(1–42) HiLyte-Fluor555; assay type: binding; settings: calculated for saturation by Aβ(1–42) HiLyte-Fluor555
Description: as §1

Aβ(1–42)/calbindin-D28k complex, sequence (P05067 672-713 limits assumed, one chain of several): as above

In the case of `N[C@@H](Cc1c[nH]cn1)C(=O)N[C@@H](Cc1c[nH]cn1)C(=O)N[C@@H](Cc1c[nH]cn1)C(=O)N[C@@H](Cc1c[nH]cn1)C(=O)N[C@@H](Cc1c[nH]cn1)C(=O)N[C@@H](Cc1c[nH]cn1)C(=O)O` [His6, hexa-histidine], the IC50 [1] is reported as at most 1 µM and the IC50 [2] is reported as at most 1 µM.

For “Aβ(1–42): prevalent Aβ peptide found in the amyloid plaques of AD patients; supplied by StabVida and GenicBio”, the “inhibition of Cb5 reductase activity (in words)” value [3] was “potent inhibition of this activity by nanomolar Aβ(1–42) concentrations”, the “fitted maximum of FAD fluorescence increase (ΔF/F0)” value ([4]; Figure 5 fit, 1:1 binding, triplicate) was 0.5227 and the “effect of Cb5 on the titration of FAD fluorescence” value ([4]; absence vs presence of 5 μM Cb5) was “the same in the absence and presence of 5 μM of Cb5; also recorded: not a significant difference”. For the same compound, the “fraction of monomers and higher molecular species” value [5] was “almost undetectable” and the “critical concentration that induces fibrillization” value [6] was “submicromolar range”.

For “Aβ(1–42) HiLyte^TM-Fluor555: Human Aβ(1–42) with HiLyte-Fluor555 dye covalently bound to ASP1; AnaSpec”, the “quenching of donor FAD fluorescence at saturation” value [7] was 70 ± 7%.
